The values that follow come from ChEMBL document CHEMBL1201862, “PubChem BioAssay data set” (2004).

The structures appear in SMILES notation. Several values for one entry are separate records, joined by “and”; a condition that tells them apart may be missing. Equal values may be shown once. Activity calls are given as the source filed them. Non-standard residues stand in square brackets, D forms with d. Residues, ends and D or L forms follow the SMILES beside them. dChg = N[C@@H](C(=O)O)C1CCCCC1; NMeA = CN[C@@H](C)C(=O)O

In one assay the target is Procathepsin L (Homo sapiens, UniProt P07711).
Procathepsin L, sequence (P07711 whole entry): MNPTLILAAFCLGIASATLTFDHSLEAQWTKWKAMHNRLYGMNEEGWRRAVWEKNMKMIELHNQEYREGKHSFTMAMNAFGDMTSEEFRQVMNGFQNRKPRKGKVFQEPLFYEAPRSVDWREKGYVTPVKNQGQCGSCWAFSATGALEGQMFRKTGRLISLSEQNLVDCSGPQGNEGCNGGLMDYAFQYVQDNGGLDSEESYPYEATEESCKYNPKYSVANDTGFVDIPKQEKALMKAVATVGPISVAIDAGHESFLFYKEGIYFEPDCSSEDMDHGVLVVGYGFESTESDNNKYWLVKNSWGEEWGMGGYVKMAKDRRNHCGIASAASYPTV
Assay [1] addresses DNA damage-inducible transcript 3 protein (Mus musculus, UniProt P35639). Format: functional, Cricetulus griseus.
Assay [2] addresses T1, E3 ubiquitin-protein ligase XIAP (Homo sapiens, UniProt P98170). Put plainly: Counter Screen using XIAP-Bir3 for Chemical Antagonists of Bir1/2 domains of IAP-family anti-apoptotic proteins. [Related pubchem assays (depositor defined):AID1018, AID1449, AID1514, AID1638, AID1749, AID1750, AID488957, AID488963]. (A counterscreen serves to expose hits that act by an unwanted route or on another target.)

A further assay has as its target T2, X-box-binding protein 1 (Homo sapiens, UniProt P17861).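 Also: confirmatory dose-response counter-screen serving a CHOP assay.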
T2 sequence (P17861 whole entry): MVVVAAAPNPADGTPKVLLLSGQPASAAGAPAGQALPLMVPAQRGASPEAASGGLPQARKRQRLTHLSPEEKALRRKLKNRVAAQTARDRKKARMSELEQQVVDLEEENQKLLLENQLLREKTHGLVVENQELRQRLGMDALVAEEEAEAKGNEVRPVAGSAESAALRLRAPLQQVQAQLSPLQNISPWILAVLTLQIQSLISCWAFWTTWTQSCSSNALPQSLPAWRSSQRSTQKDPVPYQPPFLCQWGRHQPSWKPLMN
The assay is classed as functional, Cricetulus griseus.

Assay [3] in a line: HEK293T cell cytotoxicity, dose response, cytotoxicity control for HIV Vif inhibitor project, cherry-picks (AID 652208). Format: functional, cell-based.
For assay [4], the target named is T1, E3 ubiquitin-protein ligase XIAP. Put plainly: XIAP antagonists, biochemical, IAP family, fluorescence polarization (AID 1018). The assay is classed as functional. A general note: In fluorescence polarisation assays a small probe gives low polarisation when free and higher when bound to something large.
The next assay addresses Aspartyl aminopeptidase (Plasmodium falciparum 3D7, UniProt Q8I2J3).
A further assay concerns the target T3, Coagulation factor XII (Homo sapiens, UniProt P00748).
T3 sequence (P00748 whole entry): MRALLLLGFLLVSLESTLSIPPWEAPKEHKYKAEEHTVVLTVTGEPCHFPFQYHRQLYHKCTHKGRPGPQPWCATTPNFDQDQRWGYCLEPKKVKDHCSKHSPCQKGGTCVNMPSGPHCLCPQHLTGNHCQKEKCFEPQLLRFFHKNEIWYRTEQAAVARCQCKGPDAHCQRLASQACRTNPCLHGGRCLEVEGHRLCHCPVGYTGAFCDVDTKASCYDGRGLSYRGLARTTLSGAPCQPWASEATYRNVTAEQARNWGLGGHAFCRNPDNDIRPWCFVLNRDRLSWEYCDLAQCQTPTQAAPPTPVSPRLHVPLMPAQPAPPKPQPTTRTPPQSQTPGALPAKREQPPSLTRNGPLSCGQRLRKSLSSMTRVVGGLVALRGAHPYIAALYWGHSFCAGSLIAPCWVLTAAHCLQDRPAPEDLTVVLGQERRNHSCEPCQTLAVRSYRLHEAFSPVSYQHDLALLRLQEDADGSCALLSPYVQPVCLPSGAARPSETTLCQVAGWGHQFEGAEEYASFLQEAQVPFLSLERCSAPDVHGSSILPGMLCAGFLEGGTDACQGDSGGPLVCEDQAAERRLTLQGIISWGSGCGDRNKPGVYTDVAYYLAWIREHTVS
Put plainly: Factor XIIa Dose Response Confirmation from Single Well HTS. [Related pubchem assays (depositor defined):AID701]. The assay is classed as functional.

For the next assay, the target named is T4, Protein skinhead-1 (Caenorhabditis elegans, UniProt P34707).
T4 sequence (P34707 whole entry): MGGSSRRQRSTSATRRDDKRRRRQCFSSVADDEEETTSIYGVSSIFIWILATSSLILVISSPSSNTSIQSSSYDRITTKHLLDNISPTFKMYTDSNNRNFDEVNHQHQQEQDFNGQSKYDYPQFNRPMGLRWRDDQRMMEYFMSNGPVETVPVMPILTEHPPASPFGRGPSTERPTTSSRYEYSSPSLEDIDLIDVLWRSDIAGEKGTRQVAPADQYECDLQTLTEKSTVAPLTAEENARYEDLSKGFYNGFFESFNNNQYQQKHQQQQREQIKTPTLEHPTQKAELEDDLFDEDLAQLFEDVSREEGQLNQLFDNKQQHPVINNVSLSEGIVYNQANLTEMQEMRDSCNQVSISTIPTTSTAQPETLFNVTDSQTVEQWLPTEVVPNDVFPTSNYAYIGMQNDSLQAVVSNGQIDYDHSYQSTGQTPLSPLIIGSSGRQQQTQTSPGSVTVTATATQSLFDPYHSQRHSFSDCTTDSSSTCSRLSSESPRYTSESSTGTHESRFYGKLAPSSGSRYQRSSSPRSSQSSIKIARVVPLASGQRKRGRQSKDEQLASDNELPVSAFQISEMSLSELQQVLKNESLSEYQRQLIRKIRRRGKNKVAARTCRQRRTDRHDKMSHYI
Format: functional.

For the next assay, the target named is Prothrombin (Homo sapiens, UniProt P00734). Put plainly: Thrombin 1536 HTS Dose Response Confirmation. [Related pubchem assays: 1046 (Thrombin 1536 HTS; hits were confirmed in this assay)]. The assay is classed as functional.
The target in another assay is SUMO-activating enzyme (Homo sapiens, UniProt Q9UBT2). Put plainly: SUMOylation inhibitor hit validation, confirmation, SUMOylation inhibitor project, biochemical, AlphaScreen (AID 2018). The assay is classed as functional. For orientation: In Alpha technology, singlet oxygen from a donor bead excites a nearby acceptor bead.
SUMO-activating enzyme, sequence (Q9UBE0 whole entry, the tested form may be a part): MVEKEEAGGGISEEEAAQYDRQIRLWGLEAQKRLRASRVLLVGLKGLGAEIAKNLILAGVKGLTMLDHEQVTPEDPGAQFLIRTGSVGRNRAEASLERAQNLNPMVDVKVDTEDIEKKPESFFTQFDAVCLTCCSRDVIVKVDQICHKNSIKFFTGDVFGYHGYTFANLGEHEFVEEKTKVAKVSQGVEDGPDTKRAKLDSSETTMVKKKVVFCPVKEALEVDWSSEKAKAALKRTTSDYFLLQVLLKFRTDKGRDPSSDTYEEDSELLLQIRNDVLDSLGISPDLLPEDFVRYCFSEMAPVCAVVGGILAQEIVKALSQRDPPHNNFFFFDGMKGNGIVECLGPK
SUMO-activating enzyme, sequence (Q9UBT2 whole entry, the tested form may be a part): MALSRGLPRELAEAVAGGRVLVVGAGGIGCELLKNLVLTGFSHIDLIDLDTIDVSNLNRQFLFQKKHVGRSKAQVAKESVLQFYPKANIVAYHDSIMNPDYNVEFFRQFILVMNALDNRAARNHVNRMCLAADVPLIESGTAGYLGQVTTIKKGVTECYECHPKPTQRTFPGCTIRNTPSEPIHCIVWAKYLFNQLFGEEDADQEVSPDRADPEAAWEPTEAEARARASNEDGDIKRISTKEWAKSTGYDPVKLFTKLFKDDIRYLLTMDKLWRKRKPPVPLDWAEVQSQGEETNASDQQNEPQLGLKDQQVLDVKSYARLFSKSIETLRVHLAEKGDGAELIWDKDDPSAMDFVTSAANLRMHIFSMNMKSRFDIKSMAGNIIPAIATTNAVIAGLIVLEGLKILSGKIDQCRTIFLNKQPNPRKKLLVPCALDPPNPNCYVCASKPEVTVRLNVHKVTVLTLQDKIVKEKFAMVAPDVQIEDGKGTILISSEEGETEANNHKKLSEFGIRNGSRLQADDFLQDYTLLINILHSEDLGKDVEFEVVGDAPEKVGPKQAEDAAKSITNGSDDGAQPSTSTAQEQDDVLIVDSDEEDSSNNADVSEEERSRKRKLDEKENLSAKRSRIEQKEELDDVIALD
Assay [5] concerns the target T5, Runt-related transcription factor 1/Core-binding factor subunit beta (Homo sapiens, UniProt Q01196+Q13951). Put plainly: inhibitors of RUNX1 Runt–CBFb-SMMHC binding, primary screen, biochemical, FRET, Cerulean-Runt, Venus-CBFb-SMMHC, uHTS (AID 1434).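 Also: partner is the CBFb-SMMHC leukemia fusion protein rather than wild-type CBFb.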 The assay is classed as protein assay.
The target of assay [6] is T5, Runt-related transcription factor 1/Core-binding factor subunit beta. Put plainly: inhibitors of RUNX1 Runt–CBFb-SMMHC binding, biochemical, TR-FRET (AID 1438). The assay is classed as protein assay.
Assay [7] has as its target Intestinal-type alkaline phosphatase (Homo sapiens, UniProt P09923). Put plainly: human intestinal alkaline phosphatase activators, dose response, biochemical, luminescence, uHTS hits (AID 463120). The assay is classed as functional.
The target of assay [8] is T6, Sphingosine 1-phosphate receptor 4 (Homo sapiens, UniProt O95977).
T6 sequence (O95977 whole entry): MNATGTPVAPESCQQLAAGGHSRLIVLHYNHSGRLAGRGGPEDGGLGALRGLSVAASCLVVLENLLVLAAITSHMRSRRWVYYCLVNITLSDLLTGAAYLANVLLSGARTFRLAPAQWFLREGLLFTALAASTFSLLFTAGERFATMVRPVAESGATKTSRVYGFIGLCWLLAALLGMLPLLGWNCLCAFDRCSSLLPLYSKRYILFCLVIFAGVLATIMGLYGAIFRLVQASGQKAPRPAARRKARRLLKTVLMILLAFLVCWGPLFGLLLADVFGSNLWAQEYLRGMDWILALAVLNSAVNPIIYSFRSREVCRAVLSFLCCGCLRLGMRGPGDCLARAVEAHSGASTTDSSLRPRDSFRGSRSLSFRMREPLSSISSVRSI
Put plainly: S1P4 receptor agonists, human, late-stage follow-up, cell-based, fluorescence, synthesized compounds (AID 463107). The assay is classed as functional.

The target in assay [9] is T6, Sphingosine 1-phosphate receptor 4. Put plainly: Late-stage fluorescence dose response cell-based assay to identify agonists of the Sphingosine 1-Phosphate Receptor 4 (S1P4): purchased compounds EC50. [Related pubchem assays (depositor defined):AID1509, AID1523, AID1563, AID1686, AID1701, AID1801]. Format: functional.
Another assay has as its target Hexokinase-1 (Homo sapiens, UniProt P19367). Put plainly: hexokinase 1 activators, dose response, selectivity assay for HKDC1 activator project, biochemical (AID 504762). Format: functional.
The next assay has as its target Nonstructural protein 1 (Influenza A virus, UniProt Q194T2). The assay is classed as functional, Influenza A virus (A/California/07/2009(H1N1)).
Another assay has as its target T7, Hexokinase HKDC1 (Homo sapiens, UniProt Q2TB90).
T7 sequence (Q2TB90 whole entry): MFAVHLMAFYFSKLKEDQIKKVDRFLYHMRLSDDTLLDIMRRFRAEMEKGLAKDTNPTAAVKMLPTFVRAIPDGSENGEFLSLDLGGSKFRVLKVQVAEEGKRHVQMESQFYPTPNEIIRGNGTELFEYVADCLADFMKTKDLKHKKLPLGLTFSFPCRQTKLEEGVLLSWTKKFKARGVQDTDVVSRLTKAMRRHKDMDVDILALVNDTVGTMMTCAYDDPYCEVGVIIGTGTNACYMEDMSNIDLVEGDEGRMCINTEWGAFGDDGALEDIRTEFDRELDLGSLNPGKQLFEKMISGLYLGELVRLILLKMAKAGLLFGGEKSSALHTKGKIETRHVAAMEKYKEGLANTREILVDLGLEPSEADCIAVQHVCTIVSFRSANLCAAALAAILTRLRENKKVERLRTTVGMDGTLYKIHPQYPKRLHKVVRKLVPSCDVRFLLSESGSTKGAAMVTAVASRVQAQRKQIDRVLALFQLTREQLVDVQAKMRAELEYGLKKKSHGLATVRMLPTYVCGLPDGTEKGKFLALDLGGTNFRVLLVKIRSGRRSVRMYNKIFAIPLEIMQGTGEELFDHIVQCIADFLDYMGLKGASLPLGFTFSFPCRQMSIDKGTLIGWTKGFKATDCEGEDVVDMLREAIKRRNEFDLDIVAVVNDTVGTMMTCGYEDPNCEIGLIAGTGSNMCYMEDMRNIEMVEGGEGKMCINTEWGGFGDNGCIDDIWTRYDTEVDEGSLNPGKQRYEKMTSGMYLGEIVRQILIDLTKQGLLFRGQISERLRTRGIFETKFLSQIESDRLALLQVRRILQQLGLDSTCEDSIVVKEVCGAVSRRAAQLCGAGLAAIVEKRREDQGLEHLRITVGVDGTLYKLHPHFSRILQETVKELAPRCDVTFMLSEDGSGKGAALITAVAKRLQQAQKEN
Put plainly: HKDC1 hexokinase activators, dose response, biochemical, W721R variant (AID 504730). Format: functional.

Assay [10] addresses Delta-type opioid receptor (Homo sapiens, UniProt P41143). Put plainly: SAR Analysis of Antagonists of the DOR Receptor using an Image-Based Assay - Set 2. [Related pubchem assays (depositor defined):AID1777, AID1785, AID1786, AID1966, AID2133, AID2136, AID2284, AID2285, AID2357]. Format: functional.
Assay [11] deals with T8, Kappa-type opioid receptor (Homo sapiens, UniProt P41145). Put plainly: SAR analysis of small molecule agonists of the kappa opioid receptor via a luminescent beta-arrestin assay - Set 2. [Related pubchem assays (depositor defined):AID1777, AID1785, AID1786, AID1966, AID2133, AID2136, AID2284, AID449737]. Format: functional.
T8 sequence (P41145 whole entry): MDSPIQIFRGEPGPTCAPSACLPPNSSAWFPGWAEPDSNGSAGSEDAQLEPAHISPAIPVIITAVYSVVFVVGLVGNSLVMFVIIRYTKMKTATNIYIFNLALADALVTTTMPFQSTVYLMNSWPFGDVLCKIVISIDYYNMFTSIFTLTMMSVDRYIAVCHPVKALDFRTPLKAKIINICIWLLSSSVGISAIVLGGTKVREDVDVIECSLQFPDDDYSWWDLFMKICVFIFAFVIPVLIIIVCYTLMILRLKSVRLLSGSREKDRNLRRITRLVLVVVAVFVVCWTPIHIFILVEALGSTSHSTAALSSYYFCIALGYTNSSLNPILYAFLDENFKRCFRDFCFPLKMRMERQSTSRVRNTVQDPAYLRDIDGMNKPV
Assay [12] addresses T8, Kappa-type opioid receptor. Put plainly: SAR analysis of Antagonists of the Kappa Opioid Receptor (KOR) using an Image-Based Assay - Set 2. [Related pubchem assays (depositor defined):AID1777, AID1785, AID1786, AID1966, AID2133, AID2136, AID2284, AID2285, AID2348]. Format: functional.
For assay [13], the target named is T1, E3 ubiquitin-protein ligase XIAP. Put plainly: SAR analysis of Antagonists of IAP-family anti-apoptotic proteins. [Related pubchem assays (depositor defined):AID1018, AID1449, AID1513, AID1514, AID1638].
The target is the same in assay [14]. Put plainly: SAR analysis of Antagonists of XIAP-Bir3 domain of IAP-family anti-apoptotic proteins. [Related pubchem assays (depositor defined):AID1018, AID1449, AID1513, AID1514, AID1638].

T1 sequence (P98170 whole entry): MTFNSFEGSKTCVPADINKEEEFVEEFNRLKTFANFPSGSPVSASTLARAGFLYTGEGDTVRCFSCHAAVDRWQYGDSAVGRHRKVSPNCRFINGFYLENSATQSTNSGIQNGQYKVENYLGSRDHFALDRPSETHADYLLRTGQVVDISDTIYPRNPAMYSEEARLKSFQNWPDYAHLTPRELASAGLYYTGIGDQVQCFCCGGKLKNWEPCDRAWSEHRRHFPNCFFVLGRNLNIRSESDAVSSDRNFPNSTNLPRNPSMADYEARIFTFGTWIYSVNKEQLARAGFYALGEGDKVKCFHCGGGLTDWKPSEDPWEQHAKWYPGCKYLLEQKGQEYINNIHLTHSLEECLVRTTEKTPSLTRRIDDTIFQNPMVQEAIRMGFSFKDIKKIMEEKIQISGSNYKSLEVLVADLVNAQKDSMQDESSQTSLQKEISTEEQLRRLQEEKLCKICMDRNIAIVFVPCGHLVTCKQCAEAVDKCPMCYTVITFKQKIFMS
T5 sequence (Q01196 whole entry, the tested form may be a part): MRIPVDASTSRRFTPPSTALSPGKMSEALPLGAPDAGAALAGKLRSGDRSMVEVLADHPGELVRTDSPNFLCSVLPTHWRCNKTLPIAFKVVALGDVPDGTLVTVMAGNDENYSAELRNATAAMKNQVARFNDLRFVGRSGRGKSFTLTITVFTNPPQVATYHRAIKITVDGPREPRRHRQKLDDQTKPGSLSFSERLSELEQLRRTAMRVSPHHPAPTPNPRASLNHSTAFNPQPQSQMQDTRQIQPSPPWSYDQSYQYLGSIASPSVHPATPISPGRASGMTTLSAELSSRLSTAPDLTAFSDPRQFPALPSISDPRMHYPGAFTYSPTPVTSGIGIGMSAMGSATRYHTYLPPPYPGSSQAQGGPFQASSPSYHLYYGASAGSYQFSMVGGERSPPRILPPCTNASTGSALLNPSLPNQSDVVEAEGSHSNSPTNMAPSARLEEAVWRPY
T5 sequence (Q13951 whole entry, the tested form may be a part): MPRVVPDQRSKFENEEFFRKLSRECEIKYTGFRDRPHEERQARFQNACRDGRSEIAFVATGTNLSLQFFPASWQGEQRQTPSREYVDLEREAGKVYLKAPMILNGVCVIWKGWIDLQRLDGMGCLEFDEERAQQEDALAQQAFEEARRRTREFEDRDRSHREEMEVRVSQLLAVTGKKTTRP
Hexokinase-1, sequence (P19367 whole entry): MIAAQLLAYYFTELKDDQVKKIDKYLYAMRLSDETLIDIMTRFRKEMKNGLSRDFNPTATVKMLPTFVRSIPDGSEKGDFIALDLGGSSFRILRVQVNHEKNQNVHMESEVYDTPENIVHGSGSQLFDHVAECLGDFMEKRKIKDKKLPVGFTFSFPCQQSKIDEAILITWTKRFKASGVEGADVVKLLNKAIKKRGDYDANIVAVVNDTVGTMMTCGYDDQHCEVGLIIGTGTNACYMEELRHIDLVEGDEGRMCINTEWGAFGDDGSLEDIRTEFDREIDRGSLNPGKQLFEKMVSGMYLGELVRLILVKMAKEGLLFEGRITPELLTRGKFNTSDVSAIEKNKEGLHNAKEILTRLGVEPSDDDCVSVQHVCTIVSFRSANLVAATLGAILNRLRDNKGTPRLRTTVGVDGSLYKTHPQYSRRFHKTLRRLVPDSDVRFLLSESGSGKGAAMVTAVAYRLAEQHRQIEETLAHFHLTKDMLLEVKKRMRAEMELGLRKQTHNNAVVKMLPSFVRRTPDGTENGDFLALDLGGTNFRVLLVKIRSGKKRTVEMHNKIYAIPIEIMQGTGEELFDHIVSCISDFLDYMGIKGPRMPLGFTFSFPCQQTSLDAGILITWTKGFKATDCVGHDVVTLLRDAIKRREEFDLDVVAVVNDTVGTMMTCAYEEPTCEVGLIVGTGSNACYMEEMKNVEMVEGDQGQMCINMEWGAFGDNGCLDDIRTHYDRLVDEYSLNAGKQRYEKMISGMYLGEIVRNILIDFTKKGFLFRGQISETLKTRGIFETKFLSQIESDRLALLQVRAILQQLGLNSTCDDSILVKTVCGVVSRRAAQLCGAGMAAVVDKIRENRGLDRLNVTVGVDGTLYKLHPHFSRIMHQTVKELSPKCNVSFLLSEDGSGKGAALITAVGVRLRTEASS
Nonstructural protein 1, sequence (Q194T2 whole entry): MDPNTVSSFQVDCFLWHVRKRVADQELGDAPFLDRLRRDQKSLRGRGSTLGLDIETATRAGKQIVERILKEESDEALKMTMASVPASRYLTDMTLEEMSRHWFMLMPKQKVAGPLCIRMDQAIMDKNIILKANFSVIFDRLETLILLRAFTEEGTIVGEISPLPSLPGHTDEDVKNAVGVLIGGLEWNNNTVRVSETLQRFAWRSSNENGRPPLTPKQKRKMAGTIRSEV
Intestinal-type alkaline phosphatase, sequence (P09923 whole entry): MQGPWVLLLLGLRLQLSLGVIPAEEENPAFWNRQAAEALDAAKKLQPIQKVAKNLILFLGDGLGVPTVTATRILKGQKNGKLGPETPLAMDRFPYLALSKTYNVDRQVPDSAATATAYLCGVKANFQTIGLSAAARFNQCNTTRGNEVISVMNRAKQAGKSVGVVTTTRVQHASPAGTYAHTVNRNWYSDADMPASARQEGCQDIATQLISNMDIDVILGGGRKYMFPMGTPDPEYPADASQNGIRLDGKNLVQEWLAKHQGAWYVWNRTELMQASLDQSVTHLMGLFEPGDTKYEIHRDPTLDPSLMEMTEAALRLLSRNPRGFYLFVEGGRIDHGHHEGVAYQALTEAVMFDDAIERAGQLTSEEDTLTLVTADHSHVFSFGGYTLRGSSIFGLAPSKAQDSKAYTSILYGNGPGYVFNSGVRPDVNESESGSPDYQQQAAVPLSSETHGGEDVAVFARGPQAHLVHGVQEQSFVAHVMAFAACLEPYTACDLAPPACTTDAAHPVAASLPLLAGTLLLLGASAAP
Delta-type opioid receptor, sequence (P41143 whole entry): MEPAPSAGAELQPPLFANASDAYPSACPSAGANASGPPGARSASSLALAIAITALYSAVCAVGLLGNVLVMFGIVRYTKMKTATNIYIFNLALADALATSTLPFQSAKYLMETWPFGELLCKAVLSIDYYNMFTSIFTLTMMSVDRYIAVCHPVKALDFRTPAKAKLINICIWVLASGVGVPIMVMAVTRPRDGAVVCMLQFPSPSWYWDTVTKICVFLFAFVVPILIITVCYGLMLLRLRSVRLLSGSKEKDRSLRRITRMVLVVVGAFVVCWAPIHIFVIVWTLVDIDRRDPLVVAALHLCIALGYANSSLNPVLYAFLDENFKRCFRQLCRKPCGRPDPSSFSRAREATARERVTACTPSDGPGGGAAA

Broadly, the IC50 is the midpoint of a concentration-inhibition curve. What is called AC50 is the concentration giving half of the maximal activity seen. Turning to `Cc1cc(NC(=O)NC2(C(F)(F)F)Oc3ccc(Cl)cc3O2)no1` (centres undefined), the IC50 against Procathepsin L is > 59.6 µM (not active); in [2], > 100 µM (inactive); in [4], > 100 µM (not active); at Aspartyl aminopeptidase, 1.69 µM (active). Moreover, in [1], the “Absolute IC50 (CHOP)” value was determined as 10 µM. On X-box-binding protein 1, the “Absolute IC50 (XBP1)” value is less than 10 µM. Further, the AC50 in assay [3] is 38 µM (active).
As to `Cc1ccc(C(=O)n2nc(-c3cccnc3)nc2N)cc1`, the results for the IC50 on Coagulation factor XII, on Protein skinhead-1 and at Prothrombin were 0.796 µM (active), > 100 µM (inactive) and 0.543 µM (active), respectively.
Turning to `N=c1c(S(=O)(=O)c2ccccc2)cc2c(=O)n3ccccc3nc2n1Cc1ccco1`, the figures for the IC50 (at SUMO-activating enzyme; in [5]; in [6]) were 6.01 µM (active), 3.38 µM (active) and 57.5 µM (inactive), respectively.
By EC50 is commonly meant the concentration at which the effect is half-maximal. As to `O=C(COc1ccc(Br)cc1)NCCCn1ccnc1`, the EC50 in assay [7] is > 100 µM (inactive).
With `Cc1ccc(OCCOc2ccc(Br)cc2)c([N+](=O)[O-])n1`, the EC50 is > 50 µM (inactive) in [8]; 20.7 µM (inactive) and 23.3 µM (inactive) in [9].
For the compound `S=C(NN=C(c1ccccc1)c1ccccn1)N(Cc1ccccn1)Cc1ccccn1`, the results for the EC50 at Hexokinase-1 and at Hexokinase HKDC1 were > 80 µM (inactive) and 1.78 µM (active), respectively. Besides, the IC50 on Nonstructural protein 1 is 2.59 µM (active).
With `CC[C@](C)(C(=O)Nc1ccc(Br)cc1)N(Cc1ccco1)C(=O)c1ccccn1`, the IC50 in [10] and in assay [12] was > 32 µM (inactive) each time. The EC50 in assay [11] was 0.0802 µM (active).
As to `CC1CCCc2ccccc21.CN[C@@H](C)C(=O)N[C@@H](C(=O)N1CCC[C@H]1C(N)=O)C1CCCCC1` (H-[NMeA]-[dChg]-Pro-NH2), the IC50 in [13] and in assay [14] was > 100 µM (inactive) throughout.
